Values joined by “and” are separate entries in the source; they are usually repeats but may differ in a detail not shown here. Identical values can stand only once.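 In this assay, cells in 96-well plates receive the compound at five concentrations for 48 hours. Endpoints are linearly interpolated between the surrounding concentrations. Here, GI50 denotes the concentration required for 50% inhibition of growth. TGI is the concentration that stops growth completely.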
Assays:
Test in all cases: growth of human tumour cells (NCI), 48 h
RPMI-8226 leukemia = test system: RPMI-8226 leukemia
XF 498 CNS = test system: XF 498 CNS
786-0 renal = test system: 786-0 renal
HL-60(TB) leukemia = test system: HL-60(TB) leukemia
SK-MEL-5 melanoma = test system: SK-MEL-5 melanoma
SK-MEL-28 melanoma = test system: SK-MEL-28 melanoma
LOX IMVI melanoma = test system: LOX IMVI melanoma
OVCAR-4 ovarian = test system: OVCAR-4 ovarian
CCRF-CEM leukemia = test system: CCRF-CEM leukemia
COLO 205 colon = test system: COLO 205 colon
HCT-116 colon = test system: HCT-116 colon
OVCAR-8 ovarian = test system: OVCAR-8 ovarian
NCI-H460 lung = test system: NCI-H460 lung
DLD-1 colon = test system: DLD-1 colon
HT29 colon = test system: HT29 colon
SF-539 CNS = test system: SF-539 CNS
SNB-78 CNS = test system: SNB-78 CNS
KM12 colon = test system: KM12 colon
UACC-257 melanoma = test system: UACC-257 melanoma
MOLT-4 leukemia = test system: MOLT-4 leukemia
DMS 273 small cell lung = test system: DMS 273 small cell lung
NCI-H23 lung = test system: NCI-H23 lung
OVCAR-3 ovarian = test system: OVCAR-3 ovarian
SW-620 colon = test system: SW-620 colon
UACC-62 melanoma = test system: UACC-62 melanoma
M14 melanoma = test system: M14 melanoma
K-562 leukemia = test system: K-562 leukemia
HCT-15 colon = test system: HCT-15 colon
SN12C renal = test system: SN12C renal
SF-295 CNS = test system: SF-295 CNS
DMS 114 small cell lung = test system: DMS 114 small cell lung
HOP-92 NSCLC = test system: HOP-92 NSCLC
LXFL 529 NSCLC = test system: LXFL 529 NSCLC
CAKI-1 renal = test system: CAKI-1 renal
SF-268 CNS = test system: SF-268 CNS
NCI-H522 lung = test system: NCI-H522 lung
M19-MEL melanoma = test system: M19-MEL melanoma
SNB-75 CNS = test system: SNB-75 CNS
MALME-3M melanoma = test system: MALME-3M melanoma
KM20L2 colon = test system: KM20L2 colon
U251 CNS = test system: U251 CNS
RXF 393 renal = test system: RXF 393 renal
HOP-62 NSCLC = test system: HOP-62 NSCLC
SK-MEL-2 melanoma = test system: SK-MEL-2 melanoma
SK-OV-3 ovarian = test system: SK-OV-3 ovarian
NCI-H226 lung = test system: NCI-H226 lung
A549 NSCLC = test system: A549 NSCLC
UO-31 renal = test system: UO-31 renal
SR leukemia = test system: SR leukemia
HCC-2998 colon = test system: HCC-2998 colon
TK-10 renal = test system: TK-10 renal
EKVX NSCLC = test system: EKVX NSCLC
HOP-18 NSCLC = test system: HOP-18 NSCLC
IGROV1 ovarian = test system: IGROV1 ovarian
SNB-19 CNS = test system: SNB-19 CNS
ACHN renal = test system: ACHN renal
OVCAR-5 ovarian = test system: OVCAR-5 ovarian

For NCCSSC/C=C\CSSCCN, the TGI (RPMI-8226 leukemia) was 99.5 µM and 58.8 µM, the GI50 (XF 498 CNS) was 79.7 µM and 21.6 µM and the TGI (XF 498 CNS) was > 100 µM and 69.5 µM. For the same compound, the GI50 (786-0 renal) was 56.4 µM and 27.1 µM, the TGI (786-0 renal) was > 100 µM and 82 µM and the TGI (HL-60(TB) leukemia) was 29.6 µM and 45.7 µM. The GI50 (SK-MEL-5 melanoma) was > 85.7 µM and 26.9 µM, the TGI (SK-MEL-5 melanoma) was > 100 µM and 77.9 µM and the GI50 (SK-MEL-28 melanoma) was 56 µM and 24.7 µM. The TGI (SK-MEL-28 melanoma) was > 100 µM and 77.8 µM, the GI50 (LOX IMVI melanoma) was 26.2 µM and 13 µM and the TGI (LOX IMVI melanoma) was > 59.9 µM and 27.9 µM. For the same compound, the TGI (OVCAR-4 ovarian) was 77.3 µM and 41.2 µM, the TGI (CCRF-CEM leukemia) was 68.6 µM and the GI50 (COLO 205 colon) was 42.7 µM and 18.4 µM. The TGI (COLO 205 colon) was > 100 µM and 34 µM, the TGI (HCT-116 colon) was greater than 100 µM and the TGI (OVCAR-8 ovarian) was > 69.5 µM and 34.6 µM. For the same compound, the GI50 (NCI-H460 lung) was 98.4 µM and 22.2 µM, the TGI (NCI-H460 lung) was > 100 µM and 51.9 µM and the GI50 (DLD-1 colon) was 33.8 µM and 15.6 µM. For the same compound, the TGI (DLD-1 colon) was > 100 µM and 34.9 µM, the TGI (HT29 colon) was > 100 µM and 58.9 µM and the TGI (SF-539 CNS) was 70.5 µM and 36.5 µM. For the same compound, the TGI (SNB-78 CNS) was greater than 100 µM, the GI50 (KM12 colon) was 65 µM and 23.4 µM and the TGI (KM12 colon) was > 100 µM and 62 µM. For the same compound, the GI50 (UACC-257 melanoma) was 76.8 µM and 29 µM, the TGI (UACC-257 melanoma) was greater than 100 µM and the TGI (MOLT-4 leukemia) was 65.2 µM and 53.9 µM. The TGI (DMS 273 small cell lung) was > 100 µM and 60.8 µM, the TGI (NCI-H23 lung) was greater than 100 µM and the GI50 (OVCAR-3 ovarian) was > 68.6 µM and 25.1 µM. The TGI (OVCAR-3 ovarian) was > 100 µM and 67.1 µM, the TGI (SW-620 colon) was > 64.8 µM and 28.3 µM and the GI50 (UACC-62 melanoma) was 41.2 µM and 20.2 µM. For the same compound, the TGI (UACC-62 melanoma) was > 100 µM and 41.6 µM, the TGI (M14 melanoma) was > 100 µM and 42.5 µM and the GI50 (K-562 leukemia) was 6.31 µM and 15.7 µM. For the same compound, the TGI (K-562 leukemia) was 25.4 µM and 40.5 µM, the TGI (HCT-15 colon) was greater than 100 µM and the GI50 (SN12C renal) was 43.5 µM and 19 µM. The TGI (SN12C renal) was > 100 µM and 38 µM, the GI50 (SF-295 CNS) was > 90.3 µM and 27.6 µM and the TGI (SF-295 CNS) was > 100 µM and 80.8 µM. For the same compound, the TGI (DMS 114 small cell lung) was > 95.1 µM and 44 µM, the TGI (HOP-92 NSCLC) was greater than 100 µM and the TGI (LXFL 529 NSCLC) was > 67.2 µM and 44.6 µM. The TGI (CAKI-1 renal) was greater than 100 µM, the GI50 (SF-268 CNS) was > 64.9 µM and 29.5 µM and the TGI (SF-268 CNS) was greater than 100 µM. The TGI (NCI-H522 lung) was 31.4 µM and 29.1 µM, the TGI (M19-MEL melanoma) was > 100 µM and 95.2 µM and the TGI (SNB-75 CNS) was greater than 100 µM. For the same compound, the GI50 (MALME-3M melanoma) was > 40.4 µM and 17.8 µM, the TGI (MALME-3M melanoma) was > 55.8 µM and 78 µM and the GI50 (KM20L2 colon) was 76.3 µM and 21.6 µM. The TGI (KM20L2 colon) was > 100 µM and 45 µM, the TGI (U251 CNS) was > 100 µM and 67.4 µM and the TGI (RXF 393 renal) was greater than 100 µM.

COc1ccc(-c2csc(=[N+]3CCCCC3)s2)cc1 was tested, and the TGI (RPMI-8226 leukemia) was 8.36 µM, the TGI (XF 498 CNS) was 17.8 µM and the TGI (786-0 renal) was greater than 100 µM. It also gave a TGI (HL-60(TB) leukemia) of 10.2 µM, a TGI (SK-MEL-5 melanoma) of 4.76 µM and a TGI (SK-MEL-28 melanoma) of 29.7 µM. For the same compound, the TGI (HOP-62 NSCLC) was 8.06 µM, the TGI (LOX IMVI melanoma) was greater than 100 µM and the TGI (OVCAR-4 ovarian) was 36.1 µM. The TGI (CCRF-CEM leukemia) was 14.6 µM, the TGI (COLO 205 colon) was 2.85 µM and the TGI (SK-MEL-2 melanoma) was 16.6 µM. For the same compound, the TGI (SK-OV-3 ovarian) was 17.6 µM, the TGI (HCT-116 colon) was 27.8 µM and the TGI (NCI-H226 lung) was 9.37 µM. The TGI (OVCAR-8 ovarian) was greater than 100 µM, the TGI (A549 NSCLC) was greater than 100 µM and the TGI (NCI-H460 lung) was 44.8 µM. For the same compound, the TGI (DLD-1 colon) was greater than 100 µM, the TGI (HT29 colon) was 29.9 µM and the TGI (UO-31 renal) was greater than 100 µM. For the same compound, the TGI (SF-539 CNS) was 95.3 µM, the TGI (SNB-78 CNS) was greater than 100 µM and the TGI (KM12 colon) was 18.1 µM. It also gave a TGI (SR leukemia) of 11.2 µM, a TGI (UACC-257 melanoma) of 26.6 µM and a TGI (MOLT-4 leukemia) of 10.3 µM. For the same compound, the TGI (DMS 273 small cell lung) was 13.3 µM, the TGI (NCI-H23 lung) was 6.58 µM and the TGI (HCC-2998 colon) was greater than 100 µM. For the same compound, the TGI (TK-10 renal) was greater than 100 µM, the TGI (OVCAR-3 ovarian) was 31.6 µM and the TGI (SW-620 colon) was greater than 100 µM. For the same compound, the TGI (UACC-62 melanoma) was 24.1 µM, the TGI (M14 melanoma) was greater than 100 µM and the TGI (EKVX NSCLC) was greater than 100 µM. The TGI (K-562 leukemia) was 24.2 µM, the TGI (HOP-18 NSCLC) was 83 µM and the TGI (HCT-15 colon) was greater than 100 µM. The TGI (SN12C renal) was greater than 100 µM, the TGI (SF-295 CNS) was 8.73 µM and the TGI (IGROV1 ovarian) was greater than 100 µM. The TGI (HOP-92 NSCLC) was 7.73 µM, the TGI (LXFL 529 NSCLC) was 26.9 µM and the TGI (CAKI-1 renal) was 8.42 µM. The TGI (SF-268 CNS) was 23.5 µM, the TGI (SNB-19 CNS) was greater than 100 µM and the TGI (NCI-H522 lung) was 5.17 µM. It also gave a TGI (ACHN renal) greater than 100 µM, a TGI (M19-MEL melanoma) of 11.4 µM and a TGI (SNB-75 CNS) of 8.22 µM. The TGI (MALME-3M melanoma) was 13.1 µM, the TGI (OVCAR-5 ovarian) was 76.8 µM and the TGI (KM20L2 colon) was 24 µM. It also gave a TGI (U251 CNS) greater than 100 µM and a TGI (RXF 393 renal) of 56.5 µM.
